In patent US20220354098A1, “Genetically Modified Non-Human Animals and Methods of Use Thereof” (YALE UNIVERSITY, priority 2019, published 2022):

Legend:
[1] = biological target: T1, scavenger receptor B1 (SR-B1) (Mus musculus, UniProt Q61009); test: SR-B1 inhibitors in RGSKI mice: survival of transfused human RBCs in peripheral blood; assay type: in vivo; settings: 2 mg per mouse, one hour before human RBC infusion
T1 construct: endogenous in cells
T1 sequence (Q61009 1-509): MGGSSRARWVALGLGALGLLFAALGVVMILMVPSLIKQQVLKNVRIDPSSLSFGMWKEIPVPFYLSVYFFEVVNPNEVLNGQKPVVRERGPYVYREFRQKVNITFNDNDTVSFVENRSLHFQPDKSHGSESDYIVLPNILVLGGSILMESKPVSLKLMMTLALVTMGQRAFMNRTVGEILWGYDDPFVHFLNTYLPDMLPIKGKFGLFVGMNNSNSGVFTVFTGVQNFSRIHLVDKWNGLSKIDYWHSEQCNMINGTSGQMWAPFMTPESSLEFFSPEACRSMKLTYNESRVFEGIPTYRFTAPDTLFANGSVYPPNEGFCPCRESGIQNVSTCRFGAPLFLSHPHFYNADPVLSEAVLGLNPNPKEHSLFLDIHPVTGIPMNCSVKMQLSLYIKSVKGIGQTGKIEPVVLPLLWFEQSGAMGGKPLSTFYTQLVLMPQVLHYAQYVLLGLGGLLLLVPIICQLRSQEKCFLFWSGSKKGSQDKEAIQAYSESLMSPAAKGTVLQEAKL
Protocol: (§1) Inhibitor of scavenger receptor B1 can protect human RBCs in the mouse system. RGSKI mice were treated with scavenger receptor B1 named BLT-1 (2 mg per mouse). One hour after treatment, mice were infused with human RBCs and peripheral blood was collected at indicated time points. Control: PBS.
as §1, with “ITX7650 or ITX5061 (1” for “BLT-1 (2”, “mouse) obtained from iTherX.” for “mouse).”

Fah-KO mouse hepatocytes = test: NTBC rescue of Fah-KO mouse hepatocytes; assay type: in vivo; settings: NTBC in drinking water
Text: MISTRGFah are viable, fertile, and can be bred as homozygotes when maintained on drinking water supplemented with 2-(2-nitro-4-trifluoromethylbenzoyl)-1,3-cyclohexanedione (NTBC), that blocks tyrosine metabolism upstream of FAH and prevents buildup of hepatotoxic metabolites. At 8 weeks of age, MISTRGFah. mice were implanted with commercially available, adult human hepatocytes (HuHep) via direct injection into the splenic vein, followed by gradual withdrawal of NTBC water. Regulated buildup of intracellular FA results in death of murine Fah^−/− hepatocytes and regeneration with HuHep with up to 90% repopulation by HuHep (Azuma H et al., 2007, Nature Biotechnology, 25:903-910). When plasma human albumin levels reached 2 mg/dL (FIG. 11A), indicative of significant (˜80%) HuHep repopulation, HuHepMISTRGFah mice were sublethally (80cGy) irradiated and each mouse was engrafted with […] fetal liver (FL) derived CD34+ cells. MISTRG (80cGy), MISTRGW41 and NSGW41 (no irrad) served as controls to assess the effects of human liver vs W41 mutation vs cytokine humanization on erythropoiesis and huRBC in circulation. 10 weeks post transplantation mice were analyzed for engraftment and. specifically erythroid maturation and PB huRBC.

C3 and C5 complement = settings: cited from earlier work

Compound: CCCCCCC1CCCC1=NNC(N)=S (centres unmarked) [BLT-1]
- Protection of transfused human red blood cells in mouse periphery [1]: protected

Compound: O=C1CCCC(=O)C1C(=O)c1ccc(C(F)(F)F)cc1[N+](=O)[O-] [NTBC, 2-(2-nitro-4-trifluoromethylbenzoyl)-1,3-cyclohexanedione]
- Rescue of Fah-KO mouse hepatocytes (Fah-KO mouse hepatocytes): rescues the Fah-KO mouse hepatocytes from death

Compound: cobra venom factor
- Maximum human RBC chimerism (C3 and C5 complement; CVF with concurrent liposomal clodronate): ~3%
- % of circulating huRBC (C3 and C5 complement; only in conjunction with liposomal clodronate in NOD/SCID mice): increased the % of circulating huRBC
- huRBC survival (C3 and C5 complement; only when MΦs are depleted concurrently with liposomal clodronate): significantly prolonged
